Experimental data as given in patent US6417187B2, “1,2,4-triazole based compounds that can be used as insecticides or acaricides and processes” (Dow AgroSciences LLC, priority 2000, dated 2002).

Tests used:
Assay type in all cases: in vivo
[1] = system: Brown Planthopper (Nilaparvata lugens); test: Insecticidal test for Brown Planthopper (rice seedling roots in test solution)
[2] = system: tobacco budworm (Heliothis virescens); test: Insecticidal test for tobacco budworm (cotton cotyledon leaf-disc dip)
[3] = system: cotton aphid (Aphis gossvpii); test: Insecticidal test for cotton aphid (squash cotyledon spray); settings: for pest or weed control at 50 ppm: 72 h, read-out: CA: activity at 50 ppm against cotton aphid (% Control rating)
[4] = system: beet armyworm (Spodoptera exigua); test: Insecticidal test for beet armyworm (treated lepidopteran diet); settings: for pest or weed control at 400 ppm: Spodoptera exigua, 120 h, read-out: BAW: activity at 400 ppm against beet armyworm (% Control rating)
[5] = system: cabbage looper (Trichoplusia ni); test: Insecticidal test for cabbage looper (cabbage leaf-disc dip); settings: for pest or weed control at 400 ppm: Trichoplusia ni, 120 h, read-out: CL: activity at 400 ppm against cabbage looper (% Control rating)
[6] = system: Sweetpotato Whitefly (Bemisia tabacia); test: Insecticidal test for Sweetpotato Whitefly (cotton plant spray); settings: for pest or weed control at 200 ppm: Bemisia, 312 h, read-out: WF: activity at 200 ppm against whitefly (% Control rating)
[7] = system: Green Leafhopper (Nephotettix cincticeps); test: Insecticidal test for Green Leafhopper (rice seedling roots in test solution)
[8] = 10 ppm test solution, rice seedling roots, 3rd instar nymphs, mortality at 6 days
[9] = 400 ppm, cotton cotyledon leaf-dip, 2nd instar larvae, 5 days
[10] = 50 ppm spray on infested squash cotyledons, 3 days, population reduction versus untreated
[11] = 400 ppm, treated diet, second-instar larvae, 5 days
[12] = 400 ppm, cabbage leaf-dip, 2nd instar larvae, 5 days
[13] = 200 ppm spray on cotton plants, 13 days, reduction of large nymphs

SMILES	BPH: activity at 10 ppm against brown planthopper (% Control rating) [1, 8]	TBW: activity at 400 ppm against tobacco budworm (% Control rating) [2, 9]	CA: activity at 50 ppm against cotton aphid (% Control rating) [3, 10]	BAW: activity at 400 ppm against beet armyworm (% Control rating) [4, 11]	CL: activity at 400 ppm against cabbage looper (% Control rating) [5, 12]	WF: activity at 200 ppm against whitefly (% Control rating) [6, 13]	further results
CCOc1ccc(C#Cc2sc(-c3nc(-c4c(F)cccc4Cl)nn3C)c(Cl)c2Cl)cc1C(F)(F)F [Compound 49]	F (less than 50)	D (60-69)	F (less than 50)	A (90-100)	A (90-100)	F (less than 50)	
CCCCCCCc1ccc(C#Cc2sc(-c3nc(-c4c(F)cccc4Cl)nn3C)c(Cl)c2Cl)cc1 [Compound 55]							BPH: activity at 10 ppm against brown planthopper (% Control rating) ([1]; in vivo): F (key: A: 90-100; B: 80-89; C: 70-79; D: 60-69; E: 50-59; F: less than 50; G: inactive); GLH: activity at 10 ppm against green leafbopper (% Control rating) ([7]; in vivo): F (key: A: 90-100; B: 80-89; C: 70-79; D: 60-69; E: 50-59; F: less than 50; G: inactive); TBW: activity at 400 ppm against tobacco budworm (% Control rating) ([2]; in vivo): D (key: A: 90-100; B: 80-89; C: 70-79; D: 60-69; E: 50-59; F: less than 50; G: inactive); CA: activity at 50 ppm against cotton aphid (% Control rating) ([3]; in vivo): F (key: A: 90-100; B: 80-89; C: 70-79; D: 60-69; E: 50-59; F: less than 50; G: inactive); BAW: activity at 400 ppm against beet armyworm (% Control rating) ([4]; in vivo): A (key: A: 90-100; B: 80-89; C: 70-79; D: 60-69; E: 50-59; F: less than 50; G: inactive); CL: activity at 400 ppm against cabbage looper (% Control rating) ([5]; in vivo): A (key: A: 90-100; B: 80-89; C: 70-79; D: 60-69; E: 50-59; F: less than 50; G: inactive); WF: activity at 200 ppm against whitefly (% Control rating) ([6]; in vivo): F (key: A: 90-100; B: 80-89; C: 70-79; D: 60-69; E: 50-59; F: less than 50; G: inactive)
Cn1nc(-c2c(F)cccc2Cl)nc1-c1sc(C#Cc2ccc(F)cc2)c(Cl)c1Cl [Compound 12]	F (less than 50)		C (70-79)	A (90-100)	A (90-100)	F (less than 50)	GLH: activity at 10 ppm against green leafbopper (% Control rating) [7, 8]: F (less than 50)
COc1ccc(C#Cc2sc(-c3nc(-c4c(F)cccc4Cl)nn3C)c(Cl)c2Cl)cc1Cl [Compound 48]	F (less than 50)		D (60-69)	A (90-100)	A (90-100)		
Cn1nc(-c2c(F)cccc2Cl)nc1-c1sc(C#Cc2ccccc2F)c(Cl)c1Cl [Compound 9]	F (less than 50)	A (90-100)		B (80-89)	A (90-100)	F (less than 50)	
CCCc1ccc(C#Cc2sc(-c3nc(-c4c(F)cccc4Cl)nn3C)c(Cl)c2Cl)cc1 [Compound 14]	F (less than 50)	A (90-100)	A (90-100)	A (90-100)	A (90-100)	F (less than 50)	
COc1ccc(C#Cc2sc(-c3nc(-c4c(Cl)cncc4Cl)nn3C)c(Cl)c2Cl)cc1 [Compound 87]		F (less than 50)		F (less than 50)	F (less than 50)		
Cn1nc(-c2c(F)cccc2Cl)nc1-c1sc(C#Cc2ccc(-c3ccccc3)cc2)c(Cl)c1Cl [Compound 16]	F (less than 50)		F (less than 50)	F (less than 50)	D (60-69)	F (less than 50)	GLH: activity at 10 ppm against green leafbopper (% Control rating) [7, 8]: F (less than 50)
Cn1nc(-c2c(F)cccc2Cl)nc1-c1sc(C#Cc2ccc(F)cc2F)c(Cl)c1Cl [Compound 23, 3-(2-chloro-6-fluorophenyl)-5-(5-(2,4-difluorophenylalkynyl)-3,4-dichloro-2-thiophene)-1-methyl-1H-1,2,4-triazole]							GLH: activity at 10 ppm against green leafbopper (% Control rating) [7, 8]: F (less than 50); pest or weed control at 50 ppm [3, 10]: < 50%; pest or weed control at 400 ppm [4, 11]: 90 to 100%; pest or weed control at 400 ppm [5, 12]: 90 to 100%; pest or weed control at 200 ppm [6, 13]: < 50%
Cn1nc(-c2c(F)cccc2Cl)nc1-c1ccc(C#Cc2ccc(C(F)(F)F)cc2)c(Cl)c1Cl [Compound 94, 1-Methyl-3-(2-Chloro-6-fluorophenyl)-5-(2,3-dichloro-4-(2-(4-trifluoromethyl)phenyl)-ethynyl-phenyl)-1 H[1,2,4]triazole]							pest or weed control at 400 ppm ([2]; Heliothis virescens, 120 h, 400 ppm, cotton cotyledon leaf-dip, 2nd instar larvae, 5 days, read-out: TBW: activity at 400 ppm against tobacco budworm (% Control rating)): 60 to 69%; pest or weed control at 50 ppm [3, 10]: 80 to 89%; pest or weed control at 400 ppm [4, 11]: 90 to 100%; pest or weed control at 400 ppm [5, 12]: 90 to 100%; pest or weed control at 200 ppm [6, 13]: < 50%
Cn1nc(-c2c(F)cccc2Cl)nc1-c1sc(C#Cc2ccc(F)c(C(F)(F)F)c2)c(Cl)c1Cl [Compound 47]	F (less than 50)	A (90-100)	C (70-79)	A (90-100)	A (90-100)		
CCOc1ccc(C#Cc2sc(-c3nc(-c4c(F)cccc4Cl)nn3C)c(Cl)c2Cl)cc1F [Compound 60]			F (less than 50)	A (90-100)	A (90-100)	E (50-59)	
CCCCCCCOc1ccc(C#Cc2sc(-c3nc(-c4c(F)cccc4Cl)nn3C)c(Cl)c2Cl)cc1 [Compound 56]	F (less than 50)	A (90-100)	E (50-59)	A (90-100)	A (90-100)	F (less than 50)	
Cc1cc(F)ccc1C#Cc1sc(-c2nc(-c3c(F)cccc3Cl)nn2C)c(Cl)c1Cl [Compound 52]		A (90-100)	D (60-69)	A (90-100)	A (90-100)	F (less than 50)	
CCCCn1nc(-c2c(F)cccc2Cl)nc1-c1sc(C#Cc2ccc(CCC)cc2)c(Cl)c1Cl [Compound 82]			F (less than 50)	D (60-69)	A (90-100)	F (less than 50)	
CCCc1ccc(C#Cc2sc(-c3nc(-c4c(F)cccc4Cl)nn3CC)c(Cl)c2Cl)cc1 [Compound 81]		F (less than 50)	F (less than 50)	A (90-100)	D (60-69)	F (less than 50)	
CCCc1ccc(C#Cc2ccc(-c3nc(-c4c(F)cccc4Cl)nn3C)c(Cl)c2Cl)cc1 [Compound 90]							BPH: activity at 10 ppm against brown planthopper (% Control rating) ([1]; in vivo): E (key: A: 90-100; B: 80-89; C: 70-79; D: 60-69; E: 50-59; F: less than 50; G: inactive); GLH: activity at 10 ppm against green leafbopper (% Control rating) ([7]; in vivo): F (key: A: 90-100; B: 80-89; C: 70-79; D: 60-69; E: 50-59; F: less than 50; G: inactive); CA: activity at 50 ppm against cotton aphid (% Control rating) ([3]; in vivo): B (key: A: 90-100; B: 80-89; C: 70-79; D: 60-69; E: 50-59; F: less than 50; G: inactive); BAW: activity at 400 ppm against beet armyworm (% Control rating) ([4]; in vivo): A (key: A: 90-100; B: 80-89; C: 70-79; D: 60-69; E: 50-59; F: less than 50; G: inactive); CL: activity at 400 ppm against cabbage looper (% Control rating) ([5]; in vivo): A (key: A: 90-100; B: 80-89; C: 70-79; D: 60-69; E: 50-59; F: less than 50; G: inactive); WF: activity at 200 ppm against whitefly (% Control rating) ([6]; in vivo): F (key: A: 90-100; B: 80-89; C: 70-79; D: 60-69; E: 50-59; F: less than 50; G: inactive)
Cn1nc(-c2c(F)cccc2Cl)nc1-c1sc(C#Cc2cnc(N3CCOCC3)nc2)c(Cl)c1Cl [Compound 63]				D (60-69)	A (90-100)	F (less than 50)	
Cn1nc(-c2c(F)cccc2Cl)nc1-c1sc(C#Cc2ccsc2)c(Cl)c1Cl [Compound 46]	F (less than 50)		E (50-59)	D (60-69)	D (60-69)	F (less than 50)	
